The source of these data is article PMC8197361, “Assessing the Interactions of Statins with Human Adenylate Kinase Isoenzyme 1: Fluorescence and Enzyme Kinetic Studies” (International Journal of Molecular Sciences, 2021).

SMILES strings stand for the structures. Where two headings read alike, the source gives them in different places.

The target of experiment [1] is T1, human adenylate kinase isoenzyme 1 (hAK1) (Homo sapiens, UniProt P00568).
T1 construct: thrombin recognition site (C); 6xHis-tag (C); made in house; host or cells: E. coli BL21-CodonPlus(DE3)-RIL, pET-3a(+)
T1 sequence (P00568 1-194): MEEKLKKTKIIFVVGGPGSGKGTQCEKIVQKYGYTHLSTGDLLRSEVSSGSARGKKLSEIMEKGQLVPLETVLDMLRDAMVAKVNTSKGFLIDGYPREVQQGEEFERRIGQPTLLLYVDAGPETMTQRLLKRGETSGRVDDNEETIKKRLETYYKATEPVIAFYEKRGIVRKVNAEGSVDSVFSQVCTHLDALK
The experiment is described as follows: Fluorescence quenching of hAK1 intrinsic (tyrosine) fluorescence by statins, one-site binding model. The note with it: read-out: Kd (dissociation constant). On the procedure: The fluorescence emission spectra and plots of F versus [L] for the hAK1 quenching process at 20 and 25 °C are presented in Figure S2, while the emission spectra of hAK1, buffer (HEPES-NaOH) and five statins are shown in Figure S3. To analyze the quenching data upon the formation of an hAK1-statin complex, we used the following equation, which assumes a 1:1 stoichiomery:(1) PL/Pt=Pt+La+Kd−(Pt+La+Kd)^2−4PtLa/2Pt where Kd is the dissociation constant, [P]t is the concentration of protein, [L]a is the total concentration of the ligand, and [PL] it the concentration of protein-ligand complex.
The obtained fluorescence data were fitted to the one-site binding model with an applied nonlinear least-squares regression using OriginPro software (Figure 3).
Measurements were recorded in the range of 300–600 nm after excitation at λ = 289 nm at 20, 25 and 37 °C. Stock solutions of all statins were prepared in ethanol. The samples were prepared in 2 mL Eppendorf tubes and contained hAK1 at a concentration of 2 µM alone or with a statin at the following concentrations: 2, 4, 8, 16, 24, 32 and 40 µM, and 25 mM HEPES-NaOH (pH 7.5) was added to each tube, up to 2 mL. Then, the sample was transferred into the quartz cell and the spectrum was recorded. The emission spectra were measured three times. The fluorescence spectra of hAK1 in presence of statins were corrected for the inner filter effect using the following equation [63, 64]:(2) Fcor=Fobs∗ 10^AλEx+AλEm/2 where Fcor is the corrected fluorescence intensity and Fobs is the observed fluorescence intensity, AλEx is the absorption value at the excitation wavelength and AλEm is the absorption value at the emission wavelength. The fluorescence data were fitted by applying a nonlinear least-squares regression using OriginPro software Version 2016 (OriginLab Corporation, Northampton, MA, USA).

The target in experiment [2] is T1, human adenylate kinase isoenzyme 1 (hAK1). The experiment can be described thus: Adenylate kinase activity assay and enzyme inhibition studies (RP-HPLC), hAK1. The format is biochemical. To be noted: for IC50: 37 °C. On the procedure: The reaction mixture for ATP synthesis contained 2 mM MgCl2, 1 mM ADP in 10 mM HEPES-NaOH, pH 7.5. The reaction mixture for ADP synthesis was composed of 2 mM MgCl2, 1 mM AMP and ATP each, in 10 mM HEPES-NaOH, pH 7.5. […] Studies on the statin inhibition mode were performed using varying concentrations of ADP as a substrate (from 0.2 to 1.0 mM) at different fixed concentrations of statin (0, 150, 300 and 450 µM). Adenylate kinase activity measurement was carried out in 50 μL of the reaction mixture for 5–10 min at 37 °C. The reaction was terminated by the addition of 50 μL of 1 M HClO4. After 5 min incubation on ice, samples were centrifuged at 15,000× g for 5 min at 4 °C. Then, 50 μL of the obtained supernatant was neutralized with 25 μL of 1 M KOH and delipidated by shaking with n-heptane (1:5 v/v). The samples were centrifuged as above, and subsequently, adenine nucleotide concentrations were analyzed by the RP-HPLC (reversed-phase high-performance liquid chromatography) method as previously described. Briefly, purine nucleotides were separated in isocratic conditions on the Chromolith Performance RP-18e column, 4.6 mm × 100 mm (Merck, Darmstadt, Germany) using the Shimadzu Prominence LC (Kyoto, Japan) equipped with pump (LC-20AD), autosampler (SIL-20AC), column thermostat (CTO-10AS) and photodiode array detector (SPD-M20A). HPLC system control, data acquisitions and processing were done with LabSolutions software. The samples were eluted using 0.1 M phosphate buffer, pH 7.0 containing 25 mM TBA, 5 mM EDTA and 3% methanol. ADP and ATP produced during the AK-catalyzed reaction were detected at λ = 260 nm based on the retention times of standard nucleotide solutions. The AK enzymatic activity was determined by quantifying the product concentration using correlation coefficients calculated from ADP and ATP calibration curves. One unit (U) of AK activity is defined as the amount of the enzyme that catalyzes the production of 1.0 μmole of ADP or ATP per minute at 37 °C, under the assay conditions specified above. The specific activity of AK was calculated as the number of units per milligram of protein. The Lineweaver–Burk plot was used to present enzyme-substrate reactions with and without statin, where the y-intercept is equivalent to the inverse of Vmax and the x-intercept represents −1/KM. The calculation of the IC50 values was performed using GraphPad Prism 8 Software (San Diego, CA, USA).

Another experiment concerns serum AK. Also on record: method as in PMID 18576946. To be noted: 0.5 mM AMP and 0.8 mM ATP as substrates; cited from earlier work.
Experiment [3] deals with endothelial cell-surface AK. On the set-up: method as in PMID 18576946. The note with it: 0.5 mM AMP and 0.8 mM ATP as substrates; cited from earlier work.
The target of experiment [4] is T2, adenylate kinase from Geobacillus stearothermophilus (AKst) (Geobacillus stearothermophilus, UniProt P27142).
T2 construct: made in house; host or cells: E. coli BL21-CodonPlus(DE3)-RIL, pET-3a(+)
The experiment can be described thus: Adenylate kinase activity assay in the presence of statins, AKst (long type AK). It counts as biochemical. To be noted: same drug concentration range as in hAK1 experiments; ADP or ATP and AMP as substrates, 1 mM each. On the procedure:
Next, we measured the enzymatic activity of AKst in the presence of RVS and SVS at the same drug concentration range as in the hAK1 experiments (Figure S4). […] This region has limited accessibility in AKst due to the presence of a markedly bigger LID domain as compared to hAK1, which may consequently prevent the binding of statins to AKst.
The reaction mixture for ATP synthesis contained 2 mM MgCl2, 1 mM ADP in 10 mM HEPES-NaOH, pH 7.5. The reaction mixture for ADP synthesis was composed of 2 mM MgCl2, 1 mM AMP and ATP each, in 10 mM HEPES-NaOH, pH 7.5. […] Studies on the statin inhibition mode were performed using varying concentrations of ADP as a substrate (from 0.2 to 1.0 mM) at different fixed concentrations of statin (0, 150, 300 and 450 µM). […] The samples were centrifuged as above, and subsequently, adenine nucleotide concentrations were analyzed by the RP-HPLC (reversed-phase high-performance liquid chromatography) method as previously described. […] ADP and ATP produced during the AK-catalyzed reaction were detected at λ = 260 nm based on the retention times of standard nucleotide solutions. The AK enzymatic activity was determined by quantifying the product concentration using correlation coefficients calculated from ADP and ATP calibration curves. […] The specific activity of AK was calculated as the number of units per milligram of protein. […]

[5] abbreviates: 20 °C, 2 µM hAK1, 25 mM HEPES-NaOH pH 7.5.
The mark [6] stands for this setting: 25 °C, 2 µM hAK1, 25 mM HEPES-NaOH pH 7.5.
[7] abbreviates: 37 °C, 2 µM hAK1, 25 mM HEPES-NaOH pH 7.5.
[8] abbreviates: 1 mM ADP, ATP synthesis direction, read-out: IC50 (ADP as a Substrate).
The mark [9] stands for this setting: 1 mM AMP and ATP each, ADP synthesis direction, read-out: IC50 (ATP + AMP as Substrates).

T2 sequence (P27142 whole entry): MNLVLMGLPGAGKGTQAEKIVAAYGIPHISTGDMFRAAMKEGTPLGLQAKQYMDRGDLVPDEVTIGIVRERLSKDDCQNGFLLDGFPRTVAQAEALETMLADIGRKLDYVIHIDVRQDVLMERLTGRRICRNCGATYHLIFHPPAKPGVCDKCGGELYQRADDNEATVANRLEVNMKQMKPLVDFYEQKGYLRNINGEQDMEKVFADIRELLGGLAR

Regarding `CC[C@H](C)C(=O)O[C@H]1C[C@H](O)C=C2C=C[C@H](C)[C@H](CC[C@@H](O)C[C@@H](O)CC(=O)O)[C@H]21` [PVS, Pravastatin], the Kd (in general, the constant that tells how readily two partners part at equilibrium) in experiment [1] (setting [5]) was determined as 19.4 ± 4.1 µM; in experiment [1] (setting [6]), 26.4 ± 6.2 µM; in experiment [1] (setting [7]), 28.6 ± 8.2 µM. Further, the half-inhibitory concentration (IC50) (as a rule, the concentration that gives 50% inhibition) in experiment [2] (setting [8]) worked out at 95 ± 19 µM; in experiment [2] (setting [9]), 211 ± 33 µM.
Take `Nc1ncnc2c1ncn2[C@@H]1O[C@H](COP(=O)(O)OP(=O)(O)OP(=O)(O)OP(=O)(O)OP(=O)(O)OC[C@H]2O[C@@H](n3cnc4c(N)ncnc43)[C@H](O)[C@@H]2O)[C@@H](O)[C@H]1O` [Ap5A, P^1,P^5-di(adenosine-5′)pentaphosphate]: the results for the half-maximal inhibitory concentration (IC50) (with serum AK; in experiment [3]) were 6.3 µM and 6 µM, respectively.
For `CC(C)n1c(/C=C/C(O)CC(O)CC(=O)O)c(-c2ccc(F)cc2)c2ccccc21` (stereo not drawn) [FVS, Fluvastatin], the Kd was determined as 17.4 ± 2 µM in experiment [1] (setting [5]), 23.1 ± 4 µM in experiment [1] (setting [6]) and 26.6 ± 5.5 µM in experiment [1] (setting [7]). In addition, the concentration for half-maximal inhibition (IC50) in experiment [2] (setting [8]) is 126 ± 7 µM; in experiment [2] (setting [9]) it was 156 ± 11 µM.
For the molecule `CC(C)c1c(C(=O)Nc2ccccc2)c(-c2ccccc2)c(-c2ccc(F)cc2)n1CC[C@@H](O)C[C@@H](O)CC(=O)O` [AVS, Atorvastatin], the Kd in experiment [1] (setting [5]) came to 16 ± 2.1 µM; in experiment [1] (setting [6]), 27.2 ± 6.8 µM; in experiment [1] (setting [7]) it was 29.5 ± 3.7 µM. Also, the IC50 in experiment [2] (setting [8]) was 223 ± 34 µM; in experiment [2] (setting [9]), 237 ± 31 µM; in experiment [2] (ADP or ATP + AMP as substrates, read-out: IC50 values in both directions of the hAK1-catalyzed reaction), above 200 µM.
Turning to `CC(C)c1nc(N(C)S(C)(=O)=O)nc(-c2ccc(F)cc2)c1/C=C/[C@@H](O)C[C@@H](O)CC(=O)O` [RVS, Rosuvastatin], the Kd in experiment [1] (setting [5]) is 9.2 ± 1.5 µM; in experiment [1] (setting [6]) it was 16.8 ± 1.8 µM; in experiment [1] (setting [7]), 18.9 ± 3.2 µM. Also, the half-maximal inhibitory concentration (IC50) amounted to 166 ± 20 µM in experiment [2] (setting [8]) and 89 ± 15 µM in experiment [2] (setting [9]). Also, the “hAK1 inhibition mode (Lineweaver-Burk plot)” value in experiment [2] (ADP 0.2 to 1.0 mM, fixed statin concentrations 0, 150, 300 and 450 µM) is reported as “noncompetitive”. Also, the hAK1 inhibition in experiment [2] (RVS at a concentration above 200 μM) was 90%. Besides, the “Effect on the AKst enzymatic activity” value in experiment [4] is “not found any inhibitory effect”.
In the case of `CCC(C)(C)C(=O)O[C@H]1C[C@@H](C)C=C2C=C[C@H](C)[C@H](CC[C@@H]3C[C@@H](O)CC(=O)O3)[C@H]21` [SVS, Simvastatin], the Kd was 6.6 ± 1.2 µM in experiment [1] (setting [5]), 10.9 ± 1.6 µM in experiment [1] (setting [6]), 15.2 ± 2 µM in experiment [1] (setting [7]) and 15.2 ± 2 µM in experiment [1] (37 °C). Further, the figures for the half-maximal inhibitory concentration (IC50) in experiment [2] (setting [8]) and in experiment [2] (setting [9]) were 5.5 ± 1.2 µM and 3.1 ± 0.5 µM, respectively. Moreover, in experiment [4], the “Effect on the AKst enzymatic activity” value is “not found any inhibitory effect”.
